The results in this text go back to ChEMBL document CHEMBL5233215, “Recent developments of chalcones as potential antibacterial agents in medicinal chemistry” (Eur J Med Chem, 2020).

What all share (type): functional
The test system of assay [1] is Staphylococcus aureus. Briefly: Antibacterial activity methicillin-resistant Staphylococcus aureus USA300 assessed as inhibition of bacterial growth by CLSI based microbroth dilution assay. (In general: Broth dilution looks for growth in wells or tubes with falling amounts of substance.)
Assay [2] concerns Staphylococcus aureus. Kind of assay: Antibacterial activity methicillin-sensitive Staphylococcus aureus ATCC 29213 assessed as inhibition of bacterial growth by CLSI based microbroth dilution assay.
Another assay relates to Bacillus anthracis. Kind of assay: Antibacterial activity Bacillus anthracis Sterne 34F2 assessed as inhibition of bacterial growth by CLSI based microbroth dilution assay.
Assay [3] has as its system Bacillus subtilis. Briefly: Antibacterial activity Bacillus subtilis NCIM 2063 assessed as inhibition of bacterial growth incubated for 24 hrs by serial dilution technique.
Assay [4] relates to Escherichia coli. Briefly: Antibacterial activity Escherichia coli NCIM 2918 assessed as inhibition of bacterial growth incubated for 24 hrs by serial dilution technique.
Assay [5] deals with Staphylococcus aureus. Briefly: Antibacterial activity Staphylococcus aureus NCIM 2079 assessed as inhibition of bacterial growth incubated for 24 hrs by serial dilution technique.
The subject of assay [6] is Staphylococcus aureus. Briefly: Antibacterial activity Staphylococcus aureus assessed as inhibition of bacterial growth after 18 hrs by broth dilution method.
Assay [7] has as its system Pectobacterium carotovorum. Briefly: Antibacterial activity Pectobacterium carotovorum assessed as inhibition of bacterial growth after 18 hrs by broth dilution method.
Assay [8] concerns Bacillus subtilis. Kind of assay: Antibacterial activity Bacillus subtilis assessed as inhibition of bacterial growth after 18 hrs by broth dilution method.
For assay [9], the system named is Escherichia coli. Kind of assay: Antibacterial activity Escherichia coli assessed as inhibition of bacterial growth after 18 hrs by broth dilution method.
Another assay deals with Bacillus cereus. Kind of assay: Antibacterial activity Bacillus cereus assessed as inhibition of bacterial growth after 18 hrs by broth dilution method.
Assay [10] has as its system Staphylococcus aureus. Briefly: Antibacterial activity methicillin-resistant Staphylococcus aureus MRSA B-10760 assessed as inhibition of bacterial growth incubated for 16 to 24 hrs by broth microdilution assay. Particulars: time 16-24 hrs.
The test system of assay [11] is Staphylococcus aureus. Kind of assay: Antibacterial activity methicillin-resistant Staphylococcus aureus MRSA ST-1745 assessed as inhibition of bacterial growth incubated for 16 to 24 hrs by broth microdilution assay. Particulars: time 16-24 hrs.
The subject of assay [12] is Staphylococcus aureus. Briefly: Antibacterial activity methicillin-resistant Staphylococcus aureus MRSA ST-5457 assessed as inhibition of bacterial growth incubated for 16 to 24 hrs by broth microdilution assay. Particulars: time 16-24 hrs.
Assay [13] relates to Staphylococcus aureus. Briefly: Antibacterial activity methicillin-resistant Staphylococcus aureus MRSA P-8029 assessed as inhibition of bacterial growth incubated for 16 to 24 hrs by broth microdilution assay. To be noted: time 16-24 hrs.
Assay [14] deals with Staphylococcus aureus. Kind of assay: Antibacterial activity methicillin-resistant Staphylococcus aureus MRSA B-10732 assessed as inhibition of bacterial growth incubated for 16 to 24 hrs by broth microdilution assay. Particulars: time 16-24 hrs.
The subject of assay [15] is Staphylococcus aureus. Briefly: Antibacterial activity methicillin-resistant Staphylococcus aureus MRSA ST-3151 assessed as inhibition of bacterial growth incubated for 16 to 24 hrs by broth microdilution assay. To be noted: time 16-24 hrs.
The test system of assay [16] is Staphylococcus aureus. Kind of assay: Antibacterial activity methicillin-resistant Staphylococcus aureus MRSA P-6642 assessed as inhibition of bacterial growth incubated for 16 to 24 hrs by broth microdilution assay. Particulars: time 16-24 hrs.
Assay [17] has as its system Staphylococcus aureus. Kind of assay: Antibacterial activity methicillin-resistant Staphylococcus aureus MRSA ST-2438 assessed as inhibition of bacterial growth incubated for 16 to 24 hrs by broth microdilution assay. To be noted: time 16-24 hrs.
Assay [18] concerns Staphylococcus aureus. Briefly: Antibacterial activity methicillin-resistant Staphylococcus aureus MRSA ST-10342 assessed as inhibition of bacterial growth incubated for 16 to 24 hrs by broth microdilution assay. Particulars: time 16-24 hrs.
Assay [19] relates to Staphylococcus aureus. Kind of assay: Antibacterial activity methicillin-resistant Staphylococcus aureus MRSA ST-2071 assessed as inhibition of bacterial growth incubated for 16 to 24 hrs by broth microdilution assay. To be noted: time 16-24 hrs.
Assay [20] concerns Staphylococcus aureus. Briefly: Antibacterial activity methicillin-resistant Staphylococcus aureus OM481 assessed as inhibition of bacterial growth by liquid dilution method.
For assay [21], the system named is Staphylococcus aureus. Kind of assay: Antibacterial activity methicillin-resistant Staphylococcus aureus OM584 assessed as inhibition of bacterial growth by liquid dilution method.
In the next assay the test system is Pseudomonas aeruginosa. Briefly: Antimicrobial activity against Pseudomonas aeruginosa MTCC 424 assessed as bacterial growth inhibition incubated for 24 hrs by broth micro dilution method.
Assay [22] concerns Staphylococcus aureus. Briefly: Antimicrobial activity against Staphylococcus aureus MTCC 1430 assessed as bacterial growth inhibition incubated for 24 hrs by broth micro dilution method.
The test system of assay [23] is Escherichia coli. Kind of assay: Antimicrobial activity against Escherichia coli MTCC 1573 assessed as bacterial growth inhibition incubated for 24 hrs by broth micro dilution method.
The subject of assay [24] is Bacillus subtilis. Briefly: Antimicrobial activity against Bacillus subtilis MTCC 441 assessed as bacterial growth inhibition incubated for 24 hrs by broth micro dilution method.
For assay [25], the system named is Staphylococcus aureus. Kind of assay: Antibacterial activity methicillin-resistant Staphylococcus aureus ATCC 33591 assessed as inhibition of bacterial growth after 24 hrs by microdilution broth method.
For assay [26], the system named is Staphylococcus aureus. Briefly: Antibacterial activity methicillin-sensitive Staphylococcus aureus ATCC 25923 assessed as inhibition of bacterial growth after 24 hrs by microdilution broth method.
The subject of a further assay is Micrococcus luteus. Briefly: Antibacterial activity Micrococcus luteus NBRC 333 assessed as inhibition of bacterial growth after 48 hrs by two fold dilution method.
Assay [27] concerns Staphylococcus epidermidis. Briefly: Antibacterial activity Staphylococcus epidermidis NBRC 12993 assessed as inhibition of bacterial growth after 48 hrs by two fold dilution method.
In assay [28] the test system is Bacillus subtilis. Briefly: Antibacterial activity Bacillus subtilis NBRC 3757 assessed as inhibition of bacterial growth after 48 hrs by two fold dilution method.

Converted amounts (≈) assume the structure as drawn.

For orientation: MIC means the least concentration at which growth counts as inhibited. For the molecule `CC1CCN(c2ccc(/C=C/C(=O)c3ccc(O)cc3O)cc2)CC1`, the MIC came out at 3.12 µg/mL (≈ 9.26 µM) in the assay on Staphylococcus aureus [1], 6.25 µg/mL (≈ 18.5 µM) with Staphylococcus aureus [2] and 1.56 µg/mL (≈ 4.62 µM) in the assay on Bacillus anthracis.
In the case of `O=C(/C=C/c1ccc(Br)cc1)c1ccc(Cl)cc1`, the MIC in the assay with Bacillus subtilis [3], in the assay with Escherichia coli [4] and in the assay on Staphylococcus aureus [5] was 1000 µg/mL (≈ 3110 µM) in each case.
As for `COc1cccc(/C=C/C(=O)c2ccc(O)cc2O)c1OC`, the MIC was found to be 62.5 µg/mL (≈ 208 µM) with Staphylococcus aureus [6]; 125 µg/mL (≈ 416 µM) in assay [7]; 125 µg/mL (≈ 416 µM) in the assay on Bacillus subtilis [8]; 62.5 µg/mL (≈ 208 µM) in the assay with Escherichia coli [9]; 62.5 µg/mL (≈ 208 µM) in the assay on Bacillus cereus.
In the case of `COc1ccc(/C=C/C(=O)c2ccc(O)c(C)c2)cc1`, in the assay with Bacillus anthracis, the minimum inhibitory concentration (MIC) came out at 12.5 µg/mL (≈ 46.6 µM).
Take `O=C(/C=C/c1ccc(O)c(O)c1)c1ccc(-c2ccccc2)cc1`: the MIC in the assay with Staphylococcus aureus [10], in the assay on Staphylococcus aureus [11], in the assay with Staphylococcus aureus [12], with Staphylococcus aureus [13], with Staphylococcus aureus [14] and in the assay on Staphylococcus aureus [15] was 25 µg/mL (≈ 79 µM) in each case. In addition, the MIC in the assay on Staphylococcus aureus [16], with Staphylococcus aureus [17], with Staphylococcus aureus [18] and in the assay with Staphylococcus aureus [19] was 25 µg/mL (≈ 79 µM) each time.
Take `CCN(CC)c1ccc(/C=C/C(=O)c2ccc(O)cc2O)cc1`: the MIC in the assay on Staphylococcus aureus [1] was 3.12 µg/mL (≈ 10 µM); with Staphylococcus aureus [2] it was 6.25 µg/mL (≈ 20.1 µM); in the assay on Bacillus anthracis it was 3.12 µg/mL (≈ 10 µM).
As to `COc1cc(C(=O)/C=C/c2ccc(O)cc2)ccc1O`, the MIC with Staphylococcus aureus [10], with Staphylococcus aureus [11], with Staphylococcus aureus [12], with Staphylococcus aureus [13], with Staphylococcus aureus [14] and in the assay on Staphylococcus aureus [15] was 12.5 µg/mL (≈ 46.2 µM) each time. Further, the MIC in the assay on Staphylococcus aureus [16], in the assay with Staphylococcus aureus [17], with Staphylococcus aureus [18] and in the assay on Staphylococcus aureus [19] was 12.5 µg/mL (≈ 46.2 µM) throughout.
For `CC(C)=CCc1c(O)ccc(C(=O)/C=C/c2ccc(O)c(C)c2)c1O`, the MIC in the assay on Staphylococcus aureus [20] stood at 16 µg/mL (≈ 47.3 µM); in the assay on Staphylococcus aureus [21], 8 µg/mL (≈ 23.6 µM).
Take `Cc1c(C(F)(F)F)cc(Cl)c(Cl)c1-n1nnc(C(=O)/C=C/c2cn(-c3ccccc3)nc2-c2ccc(Cl)cc2)c1C`: the MIC in the assay on Pseudomonas aeruginosa is 3.12 µg/mL (≈ 5.06 µM); with Staphylococcus aureus [22], 12.5 µg/mL (≈ 20.3 µM); in the assay on Escherichia coli [23], 3.12 µg/mL (≈ 5.06 µM); in the assay on Bacillus subtilis [24], 6.25 µg/mL (≈ 10.1 µM).
As to `O=C(/C=C/c1ccc(Cl)cc1)c1ccc(O)cc1`, the MIC with Staphylococcus aureus [10], with Staphylococcus aureus [11], with Staphylococcus aureus [12], in the assay with Staphylococcus aureus [13], with Staphylococcus aureus [14] and in the assay on Staphylococcus aureus [15] was 25 µg/mL (≈ 96.6 µM) throughout. Further, the MIC with Staphylococcus aureus [16], in the assay with Staphylococcus aureus [17], with Staphylococcus aureus [18] and with Staphylococcus aureus [19] was 25 µg/mL (≈ 96.6 µM) throughout.
Consider `O=C(/C=C/c1ccccc1)c1ccc(O)cc1O` [2',4'-DIHYDROXYCHALCONE], for which the minimal inhibitory concentration (MIC) stood at 100 µg/mL (≈ 416 µM) in the assay with Staphylococcus aureus [25] and 50 µg/mL (≈ 208 µM) in the assay on Staphylococcus aureus [26].
`CC(C)=CCc1cc(C(=O)/C=C/c2ccc(O)cc2)c(O)cc1O` [BROUSSOCHALCONE B]: the MIC in the assay with Micrococcus luteus turned out to be 16 µg/mL (≈ 49.3 µM); in assay [27] it was 8 µg/mL (≈ 24.7 µM); with Bacillus subtilis [28] it was 8 µg/mL (≈ 24.7 µM).
Regarding `CC(C)=CCc1c(O)ccc(C(=O)/C=C/c2ccc(O)cc2)c1O` [ISOBAVACHALCONE], the MIC with Staphylococcus aureus [20] stood at 8 µg/mL (≈ 24.7 µM); in the assay on Micrococcus luteus, 4 µg/mL (≈ 12.3 µM); in [27], 4 µg/mL (≈ 12.3 µM); in the assay with Bacillus subtilis [28], 4 µg/mL (≈ 12.3 µM); in the assay with Staphylococcus aureus [21], 8 µg/mL (≈ 24.7 µM).
As to `O=C(/C=C/c1ccc(O)cc1)c1ccc(O)cc1O` [ISOLIQUIRITIGENIN], the MIC with Staphylococcus aureus [6] came out at 7.8 µg/mL (≈ 30.4 µM); in assay [7] it was 15.5 µg/mL (≈ 60.5 µM); in the assay on Bacillus subtilis [8], 31.3 µg/mL (≈ 122 µM); in the assay on Escherichia coli [9] it was 31.3 µg/mL (≈ 122 µM); in the assay with Bacillus cereus it was 15.5 µg/mL (≈ 60.5 µM).
Take `COc1ccc(C(=O)/C=C/c2ccc(O)cc2)c(O)c1C/C=C(\C)CCC=C(C)C` [XANTHOANGELOL F]: the MIC (in the assay on Micrococcus luteus; in assay [27]; with Bacillus subtilis [28]) was 64 µg/mL (≈ 157 µM) each time.
Take `CC(C)=CCC/C(C)=C/Cc1c(O)ccc(C(=O)/C=C/c2ccc(O)cc2)c1O` [XANTHOANGELOL]: the MIC (in the assay on Micrococcus luteus; in assay [27]; with Bacillus subtilis [28]) was 4 µg/mL (≈ 10.2 µM) throughout.
